# Measurements: PMC9997437, “Initiation and modulation of Tau protein phase separation by the drug suramin” (Scientific Reports, 2023)
# Biological target: T1, Tau (Homo sapiens, UniProt P10636)
# T1 construct: gene MAPT; full-length wildtype Tau (hTau40; 441 aa; 2N4R isoform, UniprotKB P10636-8)
# Assay: microscale thermophoresis (MST) with fluorescently labelled Tau; supported by trDLS, microscopy and TEM of Tau:suramin condensates
# Format: binding
# T1 sequence (P10636 2-441 isoform P10636-8): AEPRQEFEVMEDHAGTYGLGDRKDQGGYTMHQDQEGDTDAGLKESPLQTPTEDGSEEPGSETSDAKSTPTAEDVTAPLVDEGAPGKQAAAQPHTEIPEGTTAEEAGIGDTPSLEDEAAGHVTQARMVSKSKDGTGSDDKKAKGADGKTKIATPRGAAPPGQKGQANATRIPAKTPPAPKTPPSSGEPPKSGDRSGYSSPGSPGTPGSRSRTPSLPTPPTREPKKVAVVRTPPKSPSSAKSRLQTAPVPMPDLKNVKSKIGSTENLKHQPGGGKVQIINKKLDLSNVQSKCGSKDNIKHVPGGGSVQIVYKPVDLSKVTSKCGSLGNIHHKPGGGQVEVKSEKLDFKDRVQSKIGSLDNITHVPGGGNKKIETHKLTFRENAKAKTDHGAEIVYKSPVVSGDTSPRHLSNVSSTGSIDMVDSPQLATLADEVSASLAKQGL
compound,measurement,value
Cc1ccc(C(=O)Nc2ccc(S(=O)(=O)O)c3cc(S(=O)(=O)O)cc(S(=O)(=O)O)c23)cc1NC(=O)c1cccc(NC(=O)Nc2cccc(C(=O)Nc3cc(C(=O)Nc4ccc(S(=O)(=O)O)c5cc(S(=O)(=O)O)cc(S(=O)(=O)O)c45)ccc3C)c2)c1 [suramin],Kd,~17 µM
